In US20220031680A1, “Donecopride As Neuroprotective Agent In the Treatment of Neurodegenerative Diseases” (priority 2018, published 2022):

Experiments:
5×FAD mice = test: Novel object recognition test in 5×FAD mice; assay type: in vivo, mouse; conditions: 1 mg/kg twice a week for 3 months; 24 h inter-session interval
Protocol: Animal experiments were carried out in accordance with the Directive by the Council of the European Communities of Nov. 24, 1986 (86/609/EEC). All efforts were made to minimize animal suffering and to reduce the number of mice used. The generation of 5×FAD mice was described in Oakley et al. (2006) J. Neurosci. 26:10129-10140. These transgenic mice overexpress both human APP (695) harboring the Swedish (K670N, M671L), Florida (1716V) and London (V7171) familial AD (FAD) mutations and human Presenilin 1 (PS1) harboring the two FAD mutations M146L and L286V. Expression of both transgenes is regulated by neuronal-specific elements of the mouse Thy1 promoter. The 5×FAD strain (B6/SJL genetic background) was maintained by crossing hemizygous transgenic mice with B6/SJL F1 breeders. The 5×FAD strain (C57BL/6J genetic background) was maintained by crossing hemizygous transgenic mice with C57BL/6J F1 breeders. All animals were genotyped by PCR using tail genomic DNA. Transgenic and WT mice were bred in our animal facility, had access to food and water ad libitum and were housed under a 12 h light-dark cycle at 22-24° C. Female 5×FAD mice were used in this study. For each experiment, the age of mice is indicated in months (with a two-week range).
Compounds were resuspended in DMSO (37.5 μg/μl, stored at −20° C.) and freshly diluted 1:250 in 0.9% NaCl prior administration. Vehicle solution (0.9% NaCl, 0.4% DMSO) was used as control.
5×FAD mice received chronic treatments with drugs or vehicle according to 2 different protocols. In each experiment, drugs or vehicle solution were administered i.p. twice a week (1 mg/kg). […]
The cognitive performance of mice was tested using the novel object recognition (NOR) test (Bevins and Besheer (2006) Nat. Protoc. 1:1306-1311). […] The whole experiment was video-recorded and object exploration [time spent by the mouse nose in contact with the object or by sniffing it at a distance s 1 cm] was blindly measured. […] A discrimination index was also calculated ([novel−familiar]/[familiar+novel]). […]

Aβ42 = Aβ42 concentration in cerebrospinal fluid of 5×FAD mice; assay type: in vivo, mouse; conditions: 1 mg/kg twice a week for 3 months; compared to controls
Protocol: (§1) 5×FAD mice received chronic treatments with drugs or vehicle according to 2 different protocols. In each experiment, drugs or vehicle solution were administered i.p. twice a week (1 mg/kg). In “Protocol 1”, mice (n=6-7 mice per group) were treated with compounds for two months, from 2 to 4 months of age. In “Protocol 2”, mice (n=7) were treated with compounds for three months, from 1 month to 4 months of age. At the end of each protocol, mice were anesthetized with a mixture of 100 mg/kg ketamine and 10 mg/kg xylazine in saline solution and perfused transcardially with PBS. Brains were quickly isolated on ice, the olfactory bulbs and cerebellum removed and the two hemispheres divided. One hemisphere was frozen on dry ice and stored at −80° C. for biochemical analysis, while the other was post-fixed in 4% PFA for immunohistochemistry (IHC).
Mice were anesthetized and mounted onto a stereotaxic instrument. The neck skin was cut and subcutaneous tissue and muscles separated with the help of micro-retractors (Fine Science Tools, Heidelberg, Germany). Mice were then laid down so that the head formed an angle of about 135° with the body (Liu and Duff (2008) J. Vis. Exp. 10:960). A capillary tube (Borosilicate glass, B100-75-10, Sutter Instruments, Novato, Calif., USA) was used to punch the dura mater of the cisterna magna. CSF was collected by capillary action and transferred to 0.5 mL microtubes, immediately frozen on dry ice and stored at −80° C. until use. Once thawed, samples were heated at 60° C. for 5 min as described in the international application WO 2008/009868 and analyzed without further freezing-thawing cycles.
ELISA kits from IBL International (Hamburg, Germany) for the dosage of Aβ40 (human amyloid β (1-40) assay kit, #27713) or Aβ42 (human amyloid β (1-42) assay kit, #27719) were used according to the manufacturer's instructions. Reactions were read at 620 nm and 450 nm using an Infinite 2000 luminescence counter. The obtained values were normalized to the protein concentration of each sample, measured using a BCA protein assay (Sigma-Aldrich). […]

amyloid plaques = test: Number of amyloid plaques (thioflavin T) in 5×FAD mouse brain; assay type: in vivo; conditions: 1 mg/kg twice a week for 3 months
Protocol: as §1
(§2) Thirty-micrometer-thick sections were cut using a vibratome (Microm HM 650V, Thermo Scientific, Saint Herblain, France) and stored in cryoprotectant medium at −20° C. For the labeling of amyloid plaques, free-floating tissue sections of frontal cortex, hippocampus and entorhinal cortex (coordinates from the bregma: frontal cortex=1.98 mm, hippocampus=−1.94 mm, entorhinal cortex=−3.08 mm) were extensively washed in PBS and then incubated in blocking solution (PBS; 3% BSA; 0.1% Triton X-100) for 1 h. Sections were stained with Hoechst dye (1:1000, Life Technologies, Saint Aubin, France) for 15 minutes to detect cell nuclei and then with freshly prepared thioflavin T solution (#T3516-5G, Sigma-Aldrich) (final concentration: 0.01 mg/ml in blocking buffer) for 15 minutes. After washing in 70% ethanol for 5 minutes, samples were mounted on poly-lysine slides with coverslips. For GFAP (glial fibrillary acidic protein) staining, free-floating brain sections were blocked as before and incubated with polyclonal rabbit anti-GFAP (1:1000, Z0334, Dako, Les Ullis, France) at 4° C. overnight. After thioflavin T staining and washing with 70% ethanol, the secondary Alexafluor 594 goat anti-rabbit antibody (1:1000, A11012, Life Technologies) was added for 2 h. PBS washes and mounting were performed as described before.
(§3) Images were acquired with an Axiolmager Z1 microscope (Carl Zeiss S.A.S., Marly le Roi, France). Analysis of thioflavin T staining was performed blindly and data are presented as the mean number of particles per mm^2 in two to three tissue sections from the same brain area/animal (Image J software). GFAP expression was quantified using Image J software and results are expressed as area fractions.
(§4) 28 female 5×FAD mice (C57BL/6J genetic background) were used in this study. Mice received vehicle or compounds (1 mg/kg) i.p., twice a week for three months, from 1 to 4 months of age.
Anti-amyloid effect. Frontal cortex, hippocampus and entorhinal cortex were analyzed as representative areas of 5×FAD mouse brain (frontal, median and caudal sections) and of human brain regions that are affected early by Alzheimer's disease and are highly enriched in amyloid deposits.

GFAP = test: Astrogliosis (GFAP staining) in 5×FAD mouse brain; assay type: in vivo; conditions: 1 mg/kg twice a week for 3 months
Protocol: as §1, §2, §3, §4

SMILES: CCCCN1CCC(CCC(=O)c2cc(Cl)c(N)cc2OC)CC1 [RS 67333, 1-(4-amino-5-chloro-2-methoxy-phenyl)-3-(1-butyl-4-piperidinyl)-1-propanone, reference compound]
- recognition memory, exploration of novel vs familiar object (NOR) (5×FAD mice): reverses cognitive impairment
- Aβ42 concentration in cerebrospinal fluid (CSF) (Aβ42): not significantly different
- Amyloid plaque number in hippocampus (amyloid plaques; compared to controls): not significantly different
- reduction of the number of amyloid plaques in entorhinal cortex (amyloid plaques; compared to vehicle): No significant effect
- reduction of the number of amyloid plaques in frontal cortex (amyloid plaques; compared to vehicle): No significant effect
- GFAP staining in frontal cortex or hippocampus (GFAP; compared to controls): not significantly different
- decrease of GFAP staining in entorhinal brain slices (GFAP; compared to vehicle): 62±6%
